Results on one compound are retold here after patent publication US7964629B2, “Inhibitors of isoprenylcysteine carboxyl methyltransferase” (Duke Universtiy, priority 2005, dated 2011).

One experiment concerns the target FTase (Homo sapiens, UniProt P49354+P49356). Nature of the experiment: FTase inhibition (results not shown). The experiment is classed as biochemical. Conditions: concentrations up to 50 μM.
Experiment [1] concerns the target SssI DNA methyltransferase (Spiroplasma monobiae, UniProt P15840). Nature of the experiment: AdoMet-dependent DNA methyltransferase inhibition (results not shown). The experiment is classed as biochemical. Conditions: concentrations up to 50 μM.
Experiment [2] deals with Icmt+/+ mouse embryonic fibroblasts. Nature of the experiment: Cell growth determination, wild-type fibroblasts. Conditions: 15, 20, 30 μM; 10% serum; six days. Type of experiment: cell-based. The procedure:
(§1) FIGS. 2A-2C. […] Media and drug were replaced daily, and cell growth was monitored for six days. Data represent the mean and standard deviation of four replicate wells. (FIG. 2A) Icmt^+/+ cells; (FIG. 2B) Icmt^−/− cells; (C) Icmt^−/− cells stably transfected with a gene expressing human ICMT (Icmt^−/−/ICMT cells).
(§2) Cell growth assays were performed in a 96-well plate format. Briefly, 500 to 1000 cells were plated into 96-well plates. After the cells were allowed to attach for 24 h, media was removed and replaced with media containing either compound or vehicle. Media and drug were replaced every 24 h throughout the assay. Cell determinations were made at the times indicated in the respective figure by adding 19 μl of CellTiter 96 AqueousOne solution to each well followed by incubation of the plates in the dark at 37° C. for two hr after which the absorbance at 490 nm was read. Background absorbance from blank wells containing only media with compound or vehicle was subtracted from each test well. Typically, 3-6 replicate wells were employed for each point in each assay.

A further experiment relates to Icmt−/−/ICMT cells. Nature of the experiment: Cell growth determination, Icmt−/− cells expressing human ICMT. Conditions: 15, 20, 30 μM; 10% serum; six days. The experiment is classed as cell-based, mouse. The protocol:
as §1, §2

For experiment [3], the system named is GFP-tagged K-Ras in MDCK cells. Nature of the experiment: Localization of GFP-K-Ras in MDCK cells. Type of experiment: cell-based. Conditions: 10, 20, 30 μM; 72 h. The procedure: FIGS. 3A and 3B. Impact of cysmethynil treatment on Ras localization and signaling. FIG. 3A. Mislocalization of GFP Ras in cysmethynil treated cells. […] Live cells were imaged on a spinning disk confocal microscope. FIG. 3B. Impact of cysmethynil treatment on EGF-stimulated protein phosphorylation. […] Where indicated, cells were treated with EGF for the final 10 min prior to harvesting. Cell lysates containing equal amounts of protein were resolved on a 13% SDS-polyacrylamide gel and probed with antiphospho-Akt, antiphospho-p42/44 MAPK or anti-β-tubulin antibody as indicated. MDCK cells stably expressing GFP-H-Ras, GFP-K-Ras or GFP-N-Ras were grown on 35 mm coverslip dishes (MatTek Corporation, Ashland, Mass.) treated with poly-D-lysine. MDCK cells expressing […] were prepared by transient transfection of the Yes-GFP construct (McCabe and Berthiaume, Mol Cell Biol 10:3771-3786 (1999)) using Superfect reagent (Quiagen, Valencia, Calif.) following the manufacturer's instructions. […] Cells were imaged 72 h after drug treatment (24 h for transiently transfected cells) on an Olympus IX70 inverted microscope (Melville, N.Y.) with an UltraView spinning-disk confocal (PerkinElmer LAS, Wellesley, Mass.) and a Krypton/Argon laser, 488 nm line, attached to a cooled-CCD camera (Hamamatsu, Bridgewater, N.J.). […]

In experiment [4] the test system is DKOB8/GFP colon cancer cells. Nature of the experiment: Soft agar growth assay, DKOB8/GFP. The experiment is classed as cell-based. Conditions: three weeks. The protocol:
(§3) FIGS. 4A-4C. Overexpression of Icmt rescues EGF-stimulated MAPK activation and anchorage-independent growth in cysmethynil-treated cells. FIG. 4A. Creation of cell lines stably overexpressing Icmt. DKOB8 cells were engineered to stably express either GFP alone or a GFP-Icmt fusion protein. Membrane fractions from GFP and GFP-ICMT expressing lines were assayed for Icmt activity using the BFC assay. FIG. 4B. Overexpression of Icmt restores EGF-stimulated MAPK activation in cysmethynil-treated cells. […] Where indicated, cells were treated with EGF for the final 10 min prior to harvesting. Cell lysates containing equal amounts of protein were resolved on a 13% SDS-polyacrylamide gel and probed with antiphospho-p42/44 MAPK or, as a control, antiphospho NFκB antibody as indicated. FIG. 4C. […] After 3 weeks of growth, colonies were stained with MTT and imaged. Soft agar culture media was prepared with 10% FBS in 1× minimum essential medium (MEM) alpha. […] Cells were harvested by trypsinization at ˜80% confluence, mixed into top agar (10,000 cells/plate; 0.3% noble agar in soft agar culture media) and poured onto prepared plates. […] For each condition, triplicate samples (each consisting of three plates) were prepared. […]

Experiment [5] deals with DKOB8/GFP-Icmt colon cancer cells. Nature of the experiment: Soft agar growth assay, DKOB8/GFP-Icmt. Conditions: 20 μM, three weeks; elevated Icmt activity. The experiment is classed as cell-based. The procedure:
as §3

Experiment [6] deals with RhoA in MDA-MB-231 breast cancer cells. Nature of the experiment: Immunoblot of steady-state Rho level. The experiment is classed as cell-based. Conditions: 20 μM, 6 day treatment. The procedure:
(§4) The impact of Icmt inhibition on function of the geranylgeranylated GTPases Rho and Rac in cells has been examined. This study was carried out in MD-MBA-231 breast cancer cells. Tumorigenesis and metastatic behavior of these cells is dependent on high levels of Rho GTPases in particular. […] Cells were harvested and lysates containing equal amounts of protein were resolved by SDS-PAGE and subjected to immunoblot analysis with specific antibodies to RhoA (FIG. 7A), or Rac1 (FIG. 7B). As a control, immunoblot analysis for α-tubulin was carried out on all samples.
(In general: In western blotting, separated proteins are transferred to a membrane and probed.)

In experiment [7] the test system is Rac1 in MDA-MB-231 breast cancer cells. Nature of the experiment: Immunoblot of steady-state Rac level. Type of experiment: cell-based. Conditions: 20 μM, 6 day treatment. The procedure:
as §4

Experiment [8] concerns α-tubulin in MDA-MB-231 breast cancer cells. Nature of the experiment: Immunoblot of control protein α-tubulin. The experiment is classed as cell-based. Conditions: 20 μM, 6 day treatment. The procedure: as §4

SMILES strings stand for the structures.

Chain of SssI DNA methyltransferase (P15840 whole entry): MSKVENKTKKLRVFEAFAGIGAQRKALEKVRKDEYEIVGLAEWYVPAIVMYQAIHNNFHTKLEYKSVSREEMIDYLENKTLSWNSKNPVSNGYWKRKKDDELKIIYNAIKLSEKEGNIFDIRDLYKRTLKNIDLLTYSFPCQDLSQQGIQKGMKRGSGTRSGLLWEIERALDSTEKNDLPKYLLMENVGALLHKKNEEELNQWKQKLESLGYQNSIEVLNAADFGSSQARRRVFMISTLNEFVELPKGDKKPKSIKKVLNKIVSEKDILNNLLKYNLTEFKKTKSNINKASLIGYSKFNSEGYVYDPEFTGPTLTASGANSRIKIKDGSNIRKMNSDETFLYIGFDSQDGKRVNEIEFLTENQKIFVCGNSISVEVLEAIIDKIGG

With `CCCCCCCCn1cc(CC(N)=O)c2cc(-c3cccc(C)c3)ccc21` [cysmethynil, 2-[5-(3-methylphenyl)-1-octyl-1H-indol-3-yl]acetamide], the “inhibition of FTase” value against FTase is “did not inhibit”. Besides, the “inhibition of SssI DNA methyltransferase” value in experiment [1] is given as “nor did it inhibit”. The cell growth entry in experiment [2] is reported as “dose-dependent inhibition of growth”; in the experiment with Icmt−/−/ICMT cells, “regained sensitivity”. Further, in experiment [3], the “localization of GFP-K-Ras” value is listed as “dose-dependent mislocalization”. In addition, the “ability of cells to form colonies in soft agar” value in experiment [4] (20 μM) is reported as “dramatically reducing the ability of cells to form colonies”; in experiment [5], “rescue the ability of the cells to form colonies”. Also, in experiment [4] (10 or 20 μM), the “ability to grow in soft agar” value is “significantly impaired”. The Rho levels entry in experiment [6] is given as “almost undetectable”. In experiment [7], this compound gave a Rac levels reduced of over 80%. For the same compound, the “level of control protein α-tubulin” value in [8] is “only marginally affected”.
